Measured values from article PMC5948259, “A phase I study to assess the mass balance, excretion, and pharmacokinetics of [^14C]-ixazomib, an oral proteasome inhibitor, in patients with advanced solid tumors” (Investigational New Drugs, 2017).
Values joined by “and” are separate entries in the source; they are usually repeats but may differ in a detail not shown here. Equal entries are not always repeated. Where two headings read alike, the source gives them in different places.

How the values were obtained:
CYP2C9 = test system: CYP2C9; set-up: method as in earlier work; details: 10 μM, exceeding clinical concentrations; cited from earlier work
CYP2B6 = test system: CYP2B6; set-up: method as in earlier work; details: 10 μM, exceeding clinical concentrations; cited from earlier work
CYP2C19 = test system: CYP2C19; set-up: method as in earlier work; details: 10 μM, exceeding clinical concentrations; cited from earlier work
[1] = cited from earlier work
[2] = set-up: method as in PMID 28550039; details: 4 mg capsules, relapsed or refractory light-chain amyloidosis, cited from earlier work
[3] = cited from earlier work; remark: listed apart in the source
[4] = set-up: method as in PMID 28800141; details: cited from earlier work
CYP2D6 = test system: CYP2D6; set-up: method as in earlier work; details: 10 μM, exceeding clinical concentrations; cited from earlier work
relapsed/refractory MM = test system: relapsed/refractory MM; set-up: method as in PMID 27119237; details: cited from earlier work
[5] = test system: cytochrome P450 (CYP) and non-CYP proteins; set-up: method as in earlier work; details: clinically relevant ixazomib concentrations; cited from earlier work
CYP1A2 = test system: CYP1A2; set-up: method as in earlier work; details: 10 μM, exceeding clinical concentrations; cited from earlier work
[6] = set-up: method as in PMID 28290121; details: population PK estimate; cited from earlier work
[7] = Mass balance: recovery of TRA in urine and feces by accelerator mass spectrometry; type: in vivo, human; details: for Total recovery (%) of TRA in urine and feces: days 1–35
Protocol: (§1) The primary objectives of the study were: (1) to assess the mass balance (i.e., cumulative excretion of TRA in urine and feces) of ixazomib following a single oral solution dose of 4.1 mg [^14C]-ixazomib containing approximately 500 nCi of TRA (specific activity of 125 nCi/mg); and (2) to characterize the PK of ixazomib in plasma and urine, and of TRA in plasma and whole blood, after a single oral solution dose of 4.1 mg [^14C]-ixazomib. The secondary objective was to assess the safety and tolerability of multiple-dose ixazomib administration in patients with advanced solid tumors or lymphoma.
(§2) This study was conducted in two parts: a 35-day PK cycle (Part A), followed by repeated 28-day treatment cycles (Part B; Fig. 1). In Part A of the study, patients who met the inclusion and exclusion criteria were admitted to the study clinic on the morning of day 1 for the initial confinement period (days 1–8). Patients received a single 10 mL oral solution dose of 4.1 mg [^14C]-ixazomib containing approximately 500 nCi of TRA, followed by 3 × 10 mL water rinses of the dosing cup. Patients then drank approximately 200 mL of water. Patients returned to the clinic on days 14, 21, 28, and 35 for a 24 h overnight clinic visit. Non-radiolabeled doses of ixazomib (4 mg capsule) were administered on days 14 and 21. After completing their day 35 assessments in Part A, patients were permitted to continue into Part B of the study, where they received non-radiolabeled ixazomib (4 mg capsules) once weekly on days 1, 8, and 15 of each 28-day treatment cycle until disease progression or unacceptable toxicity. All doses of ixazomib were administered on an empty stomach, at least 1 h before or at least 2 h after food.
(§3) Plasma and whole blood samples were collected at the following time points after ixazomib administration on day 1 of Part A: 0 (predose), 0.5, 1, 2, 3, 4, 8, 24, 48, 72, 96, 120, 144, 168, 312 (day 14), 480 (day 21), 648 (day 28), and 816 (day 35) h post dose. Complete urinary and fecal output was collected continuously during the initial confinement period of Part A (days 1–8). Patients were discharged from the clinic on day 8 and returned on days 14, 21, 28, and 35 for a 24 h overnight visit. Urinary and fecal output was collected during each of these 24 h overnight clinic visits. Patients were also instructed to collect all feces at home for the 24 h period before each overnight clinic visit (days 13, 20, 27, and 34).
To achieve enhanced analytical sensitivity, accelerator mass spectrometry (AMS) was used to determine TRA in urine, feces, whole blood, and plasma samples. […] At the testing facility (Accium BioSciences, Seattle, WA, USA), samples were assigned a unique tracking number, labeled, and stored at −70 °C until further analysis. Samples were subsequently removed from storage, thawed at room temperature, and thoroughly mixed. A known aliquot of each specimen was transferred to a pre-baked quartz tube and a known amount of carbon carrier added. Samples were then dried using vacuum centrifugation and submitted for graphitization; a known amount of each specimen was combusted and then reduced to graphite for measurement of total ^14C in the sample [22]. The resulting iron-graphite mixture was pressed into individual cathodes and submitted for AMS measurement on a National Electrostatics 5.2.1.Corporation (NEC) 1.5SDH Compact AMS System (Middleton, WI) running data acquisition software developed by NEC. Total carbon measurements were performed on a Shimadzu V-Series Total 5.2.2.Organic Carbon Analyzer, which uses oxidative combustion combined with non-dispersive infrared detection for the determination of total carbon concentrations. […]

[8] = test system: plasma proteins, primarily serum albumin; set-up: method as in PMID 27121262, PMID 27196567; details: cited from earlier work
[9] = Safety and tolerability (treatment-emergent adverse events) of ixazomib in patients with advanced solid tumors; type: in vivo, human
Protocol: as §1, §2

CYP3A4 = test system: CYP3A4; set-up: method as in earlier work; details: 10 μM, exceeding clinical concentrations; cited from earlier work
advanced solid tumors = test: Disease status during the study (efficacy, not a formal endpoint); type: in vivo, human; details: for Time on study with long-term stable disease: single-agent ixazomib
Protocol: as §2

CYP2C8 = test system: CYP2C8; set-up: method as in earlier work; details: 10 μM, exceeding clinical concentrations; cited from earlier work
[10] = PK of ixazomib in plasma and urine (LC/MS/MS) after a single [14C]-ixazomib oral solution dose, phase I human ADME study Part A; type: in vivo; details: N = 5
Protocol: as §1, §2, §3
Plasma and urine concentrations of ixazomib were measured using a validated liquid chromatography/tandem mass spectrometry (LC/MS/MS) assay with a quantitation range of 0.5–500 ng/mL [16].
The plasma PK of ixazomib was characterized over the first 14 days post dose, while the urine PK and excretion of ixazomib was assessed over the first 7 days post dose. TRA in plasma, whole blood, urine, and feces was assessed over the 35-day post-dose period in Part A. Mass balance of radiolabeled ixazomib was characterized based on the sum of cumulative amounts excreted in feces and urine during the continuous collection interval up to 7 days post dose (day 8, 168 h), and the interpolated amounts excreted in feces and urine between the weekly intermittent collections up to 35 days post dose. For the intervals of time during which urine and feces were not collected, the interval recovery of TRA was estimated as the area under the excretion rate-time curve from the end of the preceding collection interval to the start of the subsequent collection interval. PK parameters were calculated by non-compartmental analysis methods (Phoenix WinNonlin version 6.2, Certara, Princeton, NJ, USA).

[11] = set-up: method as in PMID 25011071; details: patients with MM; cited from earlier work

CC(C)C[C@H](NC(=O)CNC(=O)c1cc(Cl)ccc1Cl)B(O)O [ixazomib]
Estimated relative contribution of 2C9 to metabolism (CYP2C9): < 1%
Estimated relative contribution of 2B6 to metabolism (CYP2B6): 16%
Estimated relative contribution of 2C19 to metabolism (CYP2C19): 5%
Higher total systemic exposure of ixazomib ([1]; moderate and severe hepatic impairment): 20%
Effect of mild hepatic impairment (total bilirubin ≤1.5 x ULN) on ixazomib PK ([1]; population PK analyses): no clinically meaningful effect
Effect of mild renal impairment (CrCl ≥30 mL/min) on ixazomib PK ([1]; population PK analyses): no clinically meaningful effect
Higher total systemic exposure of ixazomib compared with normal renal function ([1]; severe renal impairment and end-stage renal disease): 39%
Plasma exposures versus patients with normal organ function ([1]; severe renal impairment, end-stage renal disease requiring dialysis, moderate or severe hepatic impairment, dedicated phase I studies): increased
Whole blood to plasma AUC0–168 ratio for ixazomib alone ([2]; day 1): 12.7
Whole blood to plasma AUC0–168 ratio for ixazomib alone ([2]; day 15): 9.86
Median time to first maximum observed concentration (Tmax) ([3]; after oral administration): approximately 1 h
Effect of a high-fat meal on ixazomib absorption [3]: decreases both the rate and extent of ixazomib absorption
Geometric mean t1/2 [3]: 228 h
Reduction of plasma exposures (AUC) of ixazomib ([4]; co-administration of rifampin): 74%
Effect of strong CYP3A inhibitors on ixazomib PK ([4]; ketoconazole and clarithromycin): no significant effect
Estimated relative contribution of 2D6 to metabolism (CYP2D6): 5%
Median progression-free survival (relapsed/refractory MM; ixazomib (4 mg starting dose) added to lenalidomide and dexamethasone, RRMM patients, versus 14.7 months with placebo): 20.6 months
Progression-free survival hazard ratio (relapsed/refractory MM; ixazomib plus lenalidomide and dexamethasone versus placebo plus lenalidomide and dexamethasone, p = 0.012): 0.74
Metabolic pathways in vitro [5]: metabolized by multiple cytochrome P450 (CYP) and non-CYP proteins with CYP450 enzymes playing only a minor role
Estimated relative contribution of 1A2 to metabolism (CYP1A2): 26%
Absolute oral bioavailability [6]: 58%
Steady-state volume of distribution [6]: 543 L
Systemic clearance [6]: 1.86 L/h
Terminal disposition phase half-life (t1/2) [6]: 228 h
Cumulative TRA recovered in feces (days 1–35, %) of administered dose ([7]; Mean (SD), N = 5): 21.8% and 21.8 (3.41) %
Cumulative TRA recovered in urine (days 1–35, %) of administered dose ([7]; Mean (SD), N = 5): 62.1% and 62.1 (21.2) %
Total recovery (%) of TRA in urine and feces ([7]; Mean (SD), N = 5): 83.9 (20.7) %
Cumulative TRA recovered in feces (days 1–35, %) of administered dose ([7]; Patient 001): 18.3%
Cumulative TRA recovered in urine (days 1–35, %) of administered dose ([7]; Patient 001): 40.8%
Total recovery (%) of TRA in urine and feces ([7]; Patient 001): 59.1%
Cumulative TRA recovered in feces (days 1–35, %) of administered dose ([7]; Patient 002): 18.7%
Cumulative TRA recovered in urine (days 1–35, %) of administered dose ([7]; Patient 002): 96.0%
Total recovery (%) of TRA in urine and feces ([7]; Patient 002): 115%
Cumulative TRA recovered in feces (days 1–35, %) of administered dose ([7]; Patient 005): 26.4%
Cumulative TRA recovered in urine (days 1–35, %) of administered dose ([7]; Patient 005): 58.5%
Total recovery (%) of TRA in urine and feces ([7]; Patient 005): 84.9%
Cumulative TRA recovered in feces (days 1–35, %) of administered dose ([7]; Patient 006): 23.7%
Cumulative TRA recovered in urine (days 1–35, %) of administered dose ([7]; Patient 006): 49.3%
Total recovery (%) of TRA in urine and feces ([7]; Patient 006): 73.0%
Cumulative TRA recovered in feces (days 1–35, %) of administered dose ([7]; Patient 007): 21.9%
Cumulative TRA recovered in urine (days 1–35, %) of administered dose ([7]; Patient 007): 65.7%
Total recovery (%) of TRA in urine and feces ([7]; Patient 007): 87.6%
Daily increment in excretion of TRA ([7]; after day 28): < 1%
Mean cumulative excretion of TRA in urine and feces ([7]; by day 14 post dose): 59.0%
Mean total recovery of TRA in urine and feces ([7]; day 28 (plateau of excretion rate)): 79.4%
Orally administered dose absorbed into the systemic circulation, suggested by urinary recovery ([7]; inferred from urinary TRA recovery): at least 62%
Bound to plasma proteins [8]: 99%
Abdominal pain incidence ([9]; human, in vivo): 43%
Constipation incidence ([9]; human, in vivo): 29%
Decreased appetite incidence ([9]; human, in vivo): 43%
Diarrhea incidence ([9]; human, in vivo): 71%
Dry mouth incidence ([9]; human, in vivo): 14%
Headache incidence ([9]; human, in vivo): 43%
Nausea incidence ([9]; human, in vivo): 29%
Patients experiencing a grade 3 AE (influenza and platelet count decreased) ([9]; human, in vivo): two patients
Patients with a drug-related event ([9]; human, in vivo): 86%
Premature discontinuation or dose reduction due to an adverse event ([9]; human, in vivo): No patients
Serious adverse event (influenza, deemed unrelated to study drug) ([9]; human, in vivo): One patient
TEAEs affecting the gastrointestinal system ([9]; human, in vivo): all patients experiencing an event
Vomiting incidence ([9]; human, in vivo): 29%
Deaths on study ([9]; safety population N = 7): no patients died while on study
Estimated relative contribution of 3A4 to metabolism (CYP3A4): 42%
Patients who developed progressive disease during the study period (advanced solid tumors; 7 patients enrolled): 5 patients
Time on study with long-term stable disease (advanced solid tumors; patient with cholangiocarcinoma): 162 days
Time on study with long-term stable disease (advanced solid tumors; patient with ovarian cancer): 427 days
Estimated relative contribution of 2C8 to metabolism (CYP2C8): 6%
AUC(0-t) ([10]; human, plasma, po, 4.1 mg, plasma, single 4.1 mg oral solution dose of [14C]-ixazomib, read-out: Geometric mean AUC0–168, ng*h/mL (%CV), ixazomib): 847 ng·h/mL
AUC(0-t) ([10]; human, plasma, po, 4.1 mg, plasma, single 4.1 mg oral solution dose of [14C]-ixazomib, read-out: Geometric mean AUC0–312, ng*h/mL (%CV), ixazomib): 1180 ng·h/mL
dose excreted ([10]; human, urine, po, 4.1 mg, up to 168 h post dose, single 4.1 mg oral solution dose, read-out: Mean urinary recovery, % (SD): administered dose recovered in urine as unchanged drug): < 3.5%
Cmax ([10]; human, plasma, single 4.1 mg oral solution dose of [14C]-ixazomib, read-out: Geometric mean Cmax, ng/mL (%CV), ixazomib): 89.1 ng/mL
CL renal ([10]; human, urine, single 4.1 mg oral solution dose of [14C]-ixazomib, read-out: Geometric mean CLR (renal clearance), L/h (%CV) (converted)): 0.119 L/h
Mean urinary recovery, % (SD): administered dose recovered in urine as unchanged drug ([10]; up to 168 h post dose, single 4.1 mg oral solution dose): 3.23 (2.13) %

CC(C)C[C@H](NC(=O)[C@H](Cc1ccccc1)NC(=O)c1cnccn1)B(O)O [bortezomib]
Concentrations in whole blood higher than those observed in plasma [11]: 3 fold
